# Assay results as given in US20070172514A1, “Materials and methods for improving livestock productivity” (priority 2006, published 2007).
# Marks after values point to notes of the source that are not given here.
# How the values were obtained:
# [1] = system: pregnant pig sow; assay: Enhanced productivity in swine: pregnant sows fed cysteamine hydrochloride; format: in vivo, swine (D×L×M hybrid swine); design: Live piglet born rate, Improvement / Live piglet born rate, Improvement (%) / Birth weight per litter, Improvement: dose or concentration left out as unconfirmed; settings: for Birth weight per litter, Improvement (%) / Birth weight per piglet, Improvement (%) / Body weight of weaned piglet, Improvement (%): hydrochloride
# From the text: A total of 14 heads of pregnant pig sow (which were the offspring of Duroc×Landrace×Meishan swine, also referred to herein as D×L×M hybrid swine) (84 days of pregnant) were divided into 2 groups: Control group (6) and Cysteamine group (8). The Control group was fed with basal diet. […]
# [2] = system: D×L×M weanling piglets; assay: Enhanced growth in swine: weanling piglets fed cysteamine hydrochloride; format: in vivo; settings: 30 days; for ADG, Improvement (%): (text: 90 g per ton of feed), hydrochloride
# From the text: Total of 100 heads of unhealthy D×L×M weanling piglets (approx. 6.78 kg) were divided into 2 groups—Control group (50 heads) & Cysteamine group (50 heads). The Control group was fed with basal diet. […]
# [3] = system: fattening pigs; assay: Carcass composition/appearance of fattening pigs; format: in vivo, swine
# Experimental: 72 piglets were divided evenly into control group and Cysteamine group. The control group was treated with basal diet while the Cysteamine group was treated with basal diet added with 150 g cysteamine hydrochloride per ton of feed. Upon reaching the market weight of 85-90 kg, five animals from each treatment were slaughtered after fasting for one day. During slaughter, the animals were stunned with a stunning gun, bled, dehaired and eviscerated. The carcass was split […] and then chilled for 24 hours prior to fabrication. The slaughter and the chilled carcass weights were recorded. The chilled carcass weight expressed as percentage of the slaughter weight represents the dressed yield. The wholesale and retail cuts of each animals were weighed and recorded. The values were expressed as the percentage of the live weight and of the chilled carcass weight.
# The area of the longissimus dorsi (LD) muscle was measured on the 12th rib of the right part of the carcasses. This was done by tracing the outline of the whole LD muscle on acetate paper and the area was measured with the use of a grading method.
# [4] = system: pig intestine villi; assay: Intestine villi length and histology in pigs; format: in vivo, swine; settings: 30 days
# Experimental: 72 piglets were evenly divided into control group and Cysteamine group. The control group was treated with basal diet only, while the Cysteamine group was added with 150 g of cysteamine hydrochloride per ton of feed. The trial was lasted for 30 days.
# Immediately after evisceration, tissue samples from the small intestine, large intestine, liver, and pancreas of pigs from each treatment group were collected. The collected samples were placed in properly labeled containers containing 10% buffered neutral formalin solution. The tissue samples were fixed for 78 hours before they were processed for routine histological examination using the paraffin embedding technique (well-known to the skilled artisan).
# Sections approximately 5 to 6 μ thick were cut from paraffin blocked tissues using Optical 820 Rotary Microtome (Scientific Instruments Division, Buffalo, N.Y.). Some sections were stained with hematoxylin and eosin (H & E), others with Alcian blue. H & E stained sections were used for the examination of the general histology of the intestinal tract while the Alcian blue stained sections were used for goblet cells identification. The stained sections were examined under various magnifications using a light microscope.
# The number and length (μm) of villi in the small intestine were counted per microscopic field; the thickness of the tunica muscularis in the small and large intestine were measured using American Optical Micrometer (American Optical Company, Buffalo, N.Y.) calibrated in millimeters. The mucosal folds in the large intestine, the density of intestinal glands (crypts), the appearance of the surface epithelium were all observed. The general histology of the liver and pancreas were examined and compared between Cysteamine treated and non-Cysteamine treated groups. Goblet cell density in the Cysteamine treated and non-Cysteamine treated pigs was compared through visual examination using light microscope.
# [5] = system: Ximenta'er hybridizing beef cattle; assay: Enhanced productivity in beef cattle; format: in vivo
# Experimental: In the following example, the test animals were beef cattle (Ximenta'er hybridizing beef cattle). The experiment was performed at the Hebei Hengshui Geling Beef Cattle Raising Farm dur the period from Oct. 10 to Dec. 21, 2002. In total, 64 heads of around 350 kg Ximenta'er hybridizing beef cattle were selected and separated into 4 groups randomly according to the principle of equalizing age, weight, grace, fur/hair condition, etc. Each group had 16 heads of beef cattle. The Control Group, Test Group I, II & III were fed a composition comprising 0, 1.5, 3, 6 g/head/day of cysteamine HCl, respectively. As noted in Tables 8, 9, and 10 below, adding a cysteamine compound to the basal diet of beef cattle can increase daily weight gain.
# [6] = system: small-fat-tail sheep; assay: Enhanced productivity in small-fat-tail sheep; format: in vivo; settings: 35 days
# Experimental: In the following example, the test animals were sheep (small-fat-tail sheep). The experiment was performed at the Goat Trial Farm of Beijing Shengshifumin Muslim Food Company during the thirty-five day period from Dec. 2, 2004 to Jan. 5, 2005. In total, 40 heads of small-fat-tail sheep with the average weight of 26.5 kg were randomly divided into Control group (20) and Cysteamine group (20). The control group was fed with basal diet only, while the Cysteamine group was fed a diet that included 900 g cysteamine HCl per tonnage of diet. The standard basal diet of the farm was employed for this trial.
# [7] = system: crossbreed sheep; assay: Enhanced productivity in crossbreed sheep; format: in vivo; settings: 35 days
# [8] = late phase pregnant sow, (text: 150 g per ton feed)
# [9] = relative to control, (text: 150 g per ton feed)
# [10] = relative to control, Dosage (text: 150 g per ton feed)
# [11] = vs control, 90 g cysteamine hydrochloride per ton of feed
# [12] = 150 g per ton of feed, slaughter at 85-90 kg
# [13] = in words, 150 g per ton of feed
# [14] = Test III, 6 g/head/day, p<0.05 vs Control
# [15] = feed consumption, 20 head, 900 g/tonnage
# [16] = in words, 900 g cysteamine HCl per tonnage of diet
# [17] = relative to control, 900 g/tonnage
smiles,measurement,setting,value
"Cl.NCCS [Cysteamine HCl, cysteamine hydrochloride]","Birth weight per litter, Improvement",[1]; difference vs control,2.50 kg
same,"Birth weight per piglet, Improvement",[1]; difference vs control,0.23 kg/head
same,"Live piglet born rate, Improvement",[1]; difference vs control,0.00%
same,"Body weight of weaned piglet, Improvement","[1]; difference vs control, weaning age 19 days",0.46 kg/head
same,Total piglet born,"[1]; late phase pregnant sow, 8 sows, Dosage (text: 150 g cysteamine hydrochloride per ton feed), from 84 days of pregnant to weaning",82 head
same,Total live piglet born,"[1]; late phase pregnant sow, 8 sows, Dosage (text: 150 g per ton feed)",82 head
same,Birth weight per litter,[1]; [8],21.32 kg
same,Birth weight per piglet,[1]; [8],2.08 kg/head
same,Live piglet born per litter,[1]; [8],10.29 head
same,Live piglet born rate,[1]; [8],100.00%
same,Piglet born per litter,"[1]; late phase pregnant sow, Dosage (text: 150 g per ton feed), from 84 days of pregnant to weaning",10.29 head
same,"Live piglet born rate, Improvement (%)",[1]; relative to control,0.00%
same,"Birth weight per litter, Improvement (%)",[1]; [9],13.28%
same,"Birth weight per piglet, Improvement (%)",[1]; [9],12.43%
same,"Birth weight per litter, Improvement (%)",[1]; [10],13.28%
same,"Birth weight per piglet, Improvement (%)",[1]; [10],12.43%
same,"Body weight of weaned piglet, Improvement (%)","[1]; relative to control, weaning age 19 days, listed as Cysteamine",8.00%
same,"Body weight of weaned piglet, Improvement (%)","[1]; relative to control, weaning age 19 days, listed as cysteamine hydrochloride",8.00%
same,Body weight of weaned piglet,"[1]; weaning age 19 days, Dosage (text: 150 g per ton feed)",6.21 kg/head
same,Total feed consumption,[2]; 50 head,1076.1 kg
same,Total final weight,[2]; 50 head,973 kg
same,Total weight gain,[2]; 50 head,633 kg
same,Daily feed consumption,[2],717.4 g/head
same,Weight gain,[2],12.66 kg/head
same,ADG,[2]; average daily weight gain,422 g/head
same,"Total feed consumption, Improvement","[2]; difference vs control, 50 head",+66.3 kg
same,"Total final weight, Improvement","[2]; difference vs control, 50 head",+75 kg
same,"Total weight gain, Improvement","[2]; difference vs control, 50 head",+72.5 kg
same,"ADG, Improvement",[2]; difference vs control,+48 g/head
same,"Daily feed consumption, Improvement",[2]; difference vs control,+44.2 g/head
same,"FCR, Improvement",[2]; difference vs control,−0.1
same,"Final Wt., Improvement",[2]; difference vs control,+1.5 kg/head
same,"Weight gain, Improvement",[2]; difference vs control,+1.45 kg/head
same,FCR,[2]; feed conversion rate,1.70
same,Diarrhea,[2]; of 50 head,21 head
same,"Diarrhea, Improvement (%)",[2]; relative to control,−43.24%
same,"FCR, Improvement (%)",[2]; relative to control,−5.56%
same,"ADG, Improvement (%)","[2]; relative to control, listed as Cysteamine",12.83%
same,"ADG, Improvement (%)","[2]; relative to control, listed as cysteamine hydrochloride",12.83%
same,decrease in feed conversion rate (FCR),[2]; [11],5.56%
same,improvement in diarrhea condition,[2]; [11],43.24%
same,Final Wt.,"[2]; weanling piglets, Treatment (text: 90 g cysteamine hydrochloride per ton of feed)",19.46 kg/head
same,Dressing %,"[3]; 150 g cysteamine hydrochloride per ton of feed, slaughter at 85-90 kg, five animals",69.012%
same,Lean:Fat Ratio,[3]; [12],0.105
same,Loin Eye Area,[3]; [12],4.850 sq.cm
same,Backfat Thickness,"[3]; 150 g per ton of feed, slaughter at 85-90 kg, P < 0.05 vs Non-Cysteamine HCl",1.91^a cm
same,backfat vs pigs fed diet without cysteamine hydrochloride,[3]; in words,significantly thinner
same,"differences in dressing percentage, loin eye area, and lean:fat ratio vs diet without cysteamine hydrochloride",[3]; in words,no significant differences
same,loin cut and lean trimmings as a percent of the live-weight vs diets without cysteamine hydrochloride,[3]; in words,significantly higher
same,"Villi Length, Small Intestines","[4]; 150 g of cysteamine hydrochloride per ton of feed, same letter as Non-Cysteamine (p>0.05), unit only in method b111",2.15 ± 0.09^A μm
same,goblet cells in the small and large intestine vs non-Cysteamine-treated,[4]; [13],noticeably larger and highly distended
same,length of small intestinal villi vs non-Cysteamine treated,[4]; [13],longer
same,number of small intestinal villi vs non-Cysteamine treated,[4]; [13],more numerous
same,daily weight gain,"[5]; Test Group III, 6 g/head/day, p<0.05 vs Control, Test Group I & II",1.217 kg
same,"Feed Conversion Rate (FCR), Concentrated feed","[5]; Test I, 1.5 g/head/day",3.54
same,"Feed Conversion Rate (FCR), Corn Silage","[5]; Test I, 1.5 g/head/day",14.14
same,"Feed Conversion Rate (FCR), Raw Grass","[5]; Test I, 1.5 g/head/day",1.21
same,Final Wt.,"[5]; Test I, 1.5 g/head/day",423.8 kg
same,"Feed Conversion Rate (FCR), Concentrated feed","[5]; Test II, 3 g/head/day",3.70^a
same,"Feed Conversion Rate (FCR), Corn Silage","[5]; Test II, 3 g/head/day",14.42^a
same,"Feed Conversion Rate (FCR), Raw Grass","[5]; Test II, 3 g/head/day",1.27^a
same,Final Wt.,"[5]; Test II, 3 g/head/day",420.5 kg
same,"Feed Conversion Rate (FCR), Raw Grass","[5]; Test III, 6 g/head/day",1.06^a
same,Final Wt.,"[5]; Test III, 6 g/head/day",432.7 kg
same,"Feed Conversion Rate (FCR), Concentrated feed",[5]; [14],3.09^b
same,"Feed Conversion Rate (FCR), Corn Silage",[5]; [14],12.87^b
same,Total feed consumption,"[6]; 20 head, 900 g/tonnage",1019.38 kg
same,Final weight,[6]; Dosage 900 g/tonnage,28.92 kg/head
same,Weight gain,[6]; Dosage 900 g/tonnage,3.350 kg/head
same,daily weight gain,[6]; Dosage 900 g/tonnage,95.71 g/head/day
same,Concentrate,[6]; [15],245 kg
same,Hay,[6]; [15],350.00 kg
same,Silage,[6]; [15],424.38 kg
same,ADG vs control,[6]; [16],statistically significant increase
same,"Daily weight gain, Improvement (%)",[6]; [17],30.9%
same,"Silage, Improvement (%)",[6]; [17],−16.22%
same,"Weight gain, Improvement (%)",[6]; [17],30.9%
same,Total feed consumption,"[7]; 20 head, 900 g/tonnage",1001.2 kg
same,ADG,[7]; Dosage 900 g/tonnage,82.29 g/head/day
same,Final weight,[7]; Dosage 900 g/tonnage,29.59 kg/head
same,Weight gain,[7]; Dosage 900 g/tonnage,2.88 kg/head
same,Concentrate,[7]; [15],245 kg
same,Hay,[7]; [15],350.0 kg
same,Silage,[7]; [15],406.2 kg
same,ADG vs control,[7]; [16],statistically significant increase
same,"ADG, Improvement (%)",[7]; [17],46.2%
same,"Silage, Improvement (%)",[7]; [17],−5.14%
same,"Weight gain, Improvement (%)",[7]; [17],46.2%
